Test results as given in patent US10807985B2 (Blueprint Medicines Corporation, priority 2013, dated 2020).

Assays:
[1] = biological target: D816V KIT (Homo sapiens (Human), UniProt P10721, D816V); experiment: KIT D816V assay at Km (Caliper electrophoretic mobility shift); details: biochemical, 15 uM ATP (Km), 90 minutes at 25 C; read-out: INH KIT D816V
[2] = biological target: PDGFRA D842V (Homo sapiens (Human), UniProt P16234, D842V); experiment: PDGFRA D842V assay at Km (Caliper electrophoretic mobility shift); details: biochemical, 15 uM ATP (Km), 90 minutes at 25 C; read-out: INH PDFGRA D842V
Sequence of PDGFRA D842V (P16234 24-1089 D842V): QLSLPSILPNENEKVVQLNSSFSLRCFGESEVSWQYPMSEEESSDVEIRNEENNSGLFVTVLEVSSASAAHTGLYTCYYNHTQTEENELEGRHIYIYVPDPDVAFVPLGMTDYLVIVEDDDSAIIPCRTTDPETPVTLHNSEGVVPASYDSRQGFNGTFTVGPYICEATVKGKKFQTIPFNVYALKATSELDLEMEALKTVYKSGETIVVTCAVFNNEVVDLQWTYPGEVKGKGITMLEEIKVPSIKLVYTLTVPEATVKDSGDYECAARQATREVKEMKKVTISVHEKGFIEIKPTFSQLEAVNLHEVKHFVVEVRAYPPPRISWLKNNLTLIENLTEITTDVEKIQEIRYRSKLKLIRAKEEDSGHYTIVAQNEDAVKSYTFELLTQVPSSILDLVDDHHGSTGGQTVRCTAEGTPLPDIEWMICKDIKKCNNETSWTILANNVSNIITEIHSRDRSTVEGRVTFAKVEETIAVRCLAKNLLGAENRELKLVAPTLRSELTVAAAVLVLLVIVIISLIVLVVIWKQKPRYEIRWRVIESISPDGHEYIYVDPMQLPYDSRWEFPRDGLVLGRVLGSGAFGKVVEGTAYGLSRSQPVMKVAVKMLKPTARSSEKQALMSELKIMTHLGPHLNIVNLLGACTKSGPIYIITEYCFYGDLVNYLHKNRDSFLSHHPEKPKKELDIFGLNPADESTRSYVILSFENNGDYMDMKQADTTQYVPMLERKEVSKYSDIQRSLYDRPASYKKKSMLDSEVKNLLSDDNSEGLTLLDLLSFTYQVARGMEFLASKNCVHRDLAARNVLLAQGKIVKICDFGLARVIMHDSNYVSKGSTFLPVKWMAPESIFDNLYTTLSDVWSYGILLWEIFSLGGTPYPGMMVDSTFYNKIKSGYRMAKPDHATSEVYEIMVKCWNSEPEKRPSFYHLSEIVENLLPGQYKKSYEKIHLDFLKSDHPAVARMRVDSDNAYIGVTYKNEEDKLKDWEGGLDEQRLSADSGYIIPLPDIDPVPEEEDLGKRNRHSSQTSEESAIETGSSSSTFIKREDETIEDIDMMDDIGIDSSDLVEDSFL

[3] = biological target: KIT D816V kinase activity (KIT autophosphorylation at tyrosine 719) in HMC1.2 cells (Homo sapiens (Human), UniProt P10721, D816V/V560G); experiment: HMC1.2 autophosphorylation assay (phospho-Y719 c-KIT AlphaLISA); type: cell-based; details: HMC1.2 mast cell leukemia cell line (KIT V560G, D816V), 90 minutes compound; read-out: INH-KIT-PHOS-HMC1.2
Sequence of KIT D816V kinase activity (KIT autophosphorylation at tyrosine 719) in HMC1.2 cells (P10721 26-976 V560G/D816V): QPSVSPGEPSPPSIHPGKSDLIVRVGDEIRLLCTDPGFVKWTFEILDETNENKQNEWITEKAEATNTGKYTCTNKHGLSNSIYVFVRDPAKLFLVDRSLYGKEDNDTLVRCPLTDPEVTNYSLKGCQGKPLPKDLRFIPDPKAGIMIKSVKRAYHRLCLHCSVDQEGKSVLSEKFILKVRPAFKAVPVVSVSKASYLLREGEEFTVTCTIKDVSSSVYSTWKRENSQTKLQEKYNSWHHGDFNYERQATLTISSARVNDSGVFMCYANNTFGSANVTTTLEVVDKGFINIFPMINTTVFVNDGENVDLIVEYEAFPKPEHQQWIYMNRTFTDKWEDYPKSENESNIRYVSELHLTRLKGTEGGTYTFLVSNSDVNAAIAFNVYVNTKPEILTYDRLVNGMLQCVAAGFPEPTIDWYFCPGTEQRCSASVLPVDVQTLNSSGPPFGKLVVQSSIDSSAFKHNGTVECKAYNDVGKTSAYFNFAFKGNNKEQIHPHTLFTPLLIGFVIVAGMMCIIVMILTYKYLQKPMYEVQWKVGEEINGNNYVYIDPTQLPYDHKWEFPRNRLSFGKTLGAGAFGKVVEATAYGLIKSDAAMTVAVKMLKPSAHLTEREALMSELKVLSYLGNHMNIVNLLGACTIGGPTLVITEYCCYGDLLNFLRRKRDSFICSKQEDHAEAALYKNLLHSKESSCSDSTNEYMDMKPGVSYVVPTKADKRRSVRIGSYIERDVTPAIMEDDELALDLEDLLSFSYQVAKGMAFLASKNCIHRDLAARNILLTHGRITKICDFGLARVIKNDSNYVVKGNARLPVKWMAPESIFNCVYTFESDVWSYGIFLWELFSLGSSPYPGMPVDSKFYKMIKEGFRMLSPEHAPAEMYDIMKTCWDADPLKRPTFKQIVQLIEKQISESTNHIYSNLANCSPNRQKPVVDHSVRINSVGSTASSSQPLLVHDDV

Sequence of D816V KIT (P10721 26-976 D816V): as the sequence (P10721 26-976 V560G/D816V) above, with G535V counted along it

| SMILES | IC50 [1] [nM] | IC50 [2] [nM] | IC50 [3] [nM] |
| --- | --- | --- | --- |
| Cn1cc(-c2cc3c(N4CCN(c5ncc([C@](C)(O)c6ccc(Cl)cc6)cn5)CC4)ncnn3c2)cn1 [Compound 84] | 1.01 to 10 | 1.01 to 10 | < 50 |
| Cn1cc(-c2cc3c(N4CCN(c5ncc(C(C)(C)c6ccccc6)cn5)CC4)ncnn3c2)cn1 [Compound 20] | 1.01 to 10 | 1.01 to 10 | < 50 |
| Cn1cc(-c2cc3c(N4CCN(c5ncc([C@@](N)(c6ccc(F)cc6)C(F)F)cn5)CC4)ncnn3c2)cn1 [Compound 111] | < 1 | < 1 | < 50 |
| Cn1cc(-c2cc3c(N4CCN(c5ncc([C@@](C)(N)c6ccccc6)cn5)CC4)ncnn3c2)cn1 [Compound 22] | < 1 | < 1 | < 50 |
| Cn1cc(-c2cc3c(N4CCN(c5ncc([C@](O)(CF)c6ccc(F)cc6)cn5)CC4)ncnn3c2)cn1 [Compound 96] | < 1 | < 1 | < 50 |
| C[C@@H]1CN(c2ncnn3cc(-c4cnn(C)c4)cc23)CCN1c1ncc([C@@](C)(O)c2ccc(F)cc2)cn1 [Compound 77] | 1.01 to 10 | < 1 | < 50 |
| Cn1cc(-c2cc3c(N4CCN(c5ncc([C@](C)(CO)c6ccc(F)cc6)cn5)CC4)ncnn3c2)cn1 [Compound 79] | 1.01 to 10 | < 1 | < 50 |
| C[C@@H]1CN(c2ncnn3cc(-c4cnn(C)c4)cc23)CCN1c1ncc([C@](C)(O)c2ccc(F)cc2)cn1 [Compound 76] | 1.01 to 10 | 1.01 to 10 | 50 to 100 |
| Cn1cc(-c2cc3c(N4CCN(c5ncc([C@@](N)(c6ccc(F)cc6)C(F)(F)F)cn5)CC4)ncnn3c2)cn1 [Compound 122] | 1.01 to 10 | 1.01 to 10 | < 50 |
| Cn1cc(-c2cc3c(N4CCN(c5ncc([C@](C)(O)c6ccc(F)cc6)cn5)CC4)ncnn3c2)cn1 [Compound 45] | < 1 | < 1 | < 50 |
| C[C@](N)(c1ccc(F)cc1)c1cnc(N2CCN(c3ncnn4cc(-c5ccc(F)cc5)cc34)CC2)nc1 [Compound 62] | 1.01 to 10 | 1.01 to 10 | 50 to 100 |
| Cn1cc(-c2cc3c(N4CCN(c5ncc(Cc6ccc(F)cc6)cn5)CC4)ncnn3c2)cn1 [Compound 14] | < 1 | 1.01 to 10 | < 50 |
| COc1ccc(-c2cc3c(N4CCN(c5ncc([C@@](C)(O)c6ccc(F)cc6)cn5)CC4)ncnn3c2)cc1 [Compound 102] | 1.01 to 10 | 1.01 to 10 | 50 to 100 |
| O[C@@](c1ccc(F)cc1)(c1cnc(N2CCN(c3ncnn4cc(-c5cn[nH]c5)cc34)CC2)nc1)C(F)F [Compound 100] | < 1 | < 1 | < 50 |
| C[C@@](O)(c1ccc(F)cc1)c1cnc(N2CCN(c3ncnn4cc(-c5cn[nH]c5)cc34)CC2)nc1 [Compound 29] | 1.01 to 10 | 1.01 to 10 | 50 to 100 |
| C[C@](O)(c1ccc(F)cc1)c1cnc(N2CCN(c3ncnn4cc(-c5ccc(F)cc5)cc34)CC2)nc1 [Compound 65] | 1.01 to 10 | 1.01 to 10 | 100 to 1000 |
| COc1ccc(-c2cc3c(N4CCN(c5ncc(Cc6ccccc6)cn5)CC4)ncnn3c2)cc1 [Compound 18] | 10 to 100 | 10 to 100 | > 10000 |
| Fc1ccccc1Sc1cnc(N2CCN(c3ncnn4cc(-c5cnn(C[C@@H]6CNCCO6)c5)cc34)CC2)nc1 [Compound 123, (S)-2-((4-(4-(4-(5-(2-fluorophenylthio)pyrimidin-2-yl)piperazin-1-yl)pyrrolo[1,2-f][1,2,4]triazin-6-yl)-1H-pyrazol-1-yl)methyl)morpholine] | 1.01 to 10 | 1.01 to 10 | 50 to 100 |
| Cn1cc(-c2cc3c(N4CCN(c5ncc([C@](C)(N)c6ccccc6)cn5)CC4)ncnn3c2)cn1 [Compound 21] | 1.01 to 10 | < 1 | 50 to 100 |
| Cc1ncc(-c2cc3c(N4CCN(c5ncc([C@](C)(O)c6ccc(F)cc6)cn5)CC4)ncnn3c2)s1 [Compound 87] | 1.01 to 10 | 1.01 to 10 | 100 to 1000 |
| Cn1cc(-c2cc3c(N4CCN(c5ncc([C@](C)(N)c6ccc(F)cc6F)cn5)CC4)ncnn3c2)cn1 [Compound 86] | < 1 | < 1 | < 50 |
| C[C@](O)(c1ccc(F)cc1)c1cnc(N2CCN(c3ncnn4cc(-c5cn[nH]c5)cc34)CC2)nc1 [Compound 30] | < 1 | < 1 | < 50 |
| Cn1cc(-c2cc3c(N4CCN(c5ncc([C@@](C)(O)c6ccc(F)cc6F)cn5)CC4)ncnn3c2)cn1 [Compound 94] | < 1 | < 1 | < 50 |
| Cn1cc(-c2cc3c(N4CCN(c5ncc([C@@](C)(O)c6c(F)cc(F)cc6F)cn5)CC4)ncnn3c2)cn1 [Compound 116] | < 1 | < 1 | < 50 |
| C[C@](O)(c1cnc(N2CCN(c3ncnn4cc(-c5cn[nH]c5)cc34)CC2)nc1)c1ccc(F)cc1F [Compound 57] | < 1 | 1.01 to 10 | < 50 |

| SMILES | IC50 [1] [nM] | IC50 [2] [nM] | IC50 [3] [nM] |
| --- | --- | --- | --- |
| CO[C@](C)(c1ccc(F)cc1)c1cnc(N2CCN(c3ncnn4cc(-c5cnn(C)c5)cc34)CC2)nc1 [Compound 68] | 1.01 to 10 | 1.01 to 10 | < 50 |
| C[C@H](c1ccccc1)c1cnc(N2CCN(c3ncnn4cc(-c5cnn(C)c5)cc34)CC2)nc1 [Compound 9, (R)-6-(1-methyl-1H-pyrazol-4-yl)-4-(4-(5-(1-phenylethyl)pyrimidin-2-yl)piperazin-1-yl)pyrrolo[1,2-f][1,2,4]triazine] | 1.01 to 10 | 1.01 to 10 | < 50 |
| Cn1cc(-c2cc3c(N4CCN(c5ncc(C(C)(C)c6ccc(F)cc6)cn5)CC4)ncnn3c2)cn1 [Compound 39] | 1.01 to 10 | < 1 | < 50 |
| Cn1cc(-c2cc3c(N4CCN(c5ncc(Sc6ccccc6F)c(N)n5)CC4)ncnn3c2)cn1 [Compound 56] | < 1 | – | < 50 |
| COc1cc(OC)cc(-c2cc3c(N4CCN(c5ccccc5)CC4)ncnn3c2)c1 [Compound 4] | > 100 | – | > 10000 |
| Cn1cc(-c2cc3c(N4CCN(c5ncc([C@@](C)(N)c6c(F)cc(F)cc6F)cn5)CC4)ncnn3c2)cn1 [Compound 114] | < 1 | – | < 50 |
| Cn1cc(-c2cc3ncnc(N4CCN(c5ncc(C(C)(C)c6ccc(F)cc6)cn5)CC4)n3n2)cn1 [Compound 42] | 10 to 100 | – | 1000 to 10000 |
| Cn1cc(-c2cc3c(N4CCN(c5ncc(C(C)(C)c6c(F)cc(F)cc6F)cn5)CC4)ncnn3c2)cn1 [Compound 106] | 1.01 to 10 | – | < 50 |
| C[C@@](O)(c1cnc(N2CCN(c3ncnn4cc(-c5cn[nH]c5)cc34)CC2)nc1)c1ccc(F)cc1F [Compound 58] | < 1 | < 1 | – |
| Cc1ccc(-c2cc3c(N4CCN(c5ncc([C@@](C)(O)c6ccc(F)cc6)cn5)CC4)ncnn3c2)s1 [Compound 82] | 10 to 100 | – | 100 to 1000 |
| Cc1nn(C)cc1-c1cc2c(N3CCN(c4ncc([C@](C)(O)c5ccc(F)cc5)cn4)CC3)ncnn2c1 (single isomer, unassigned) [Compound 71] | 1.01 to 10 | – | 50 to 100 |
| CC[C@@](O)(c1ccc(F)cc1)c1cnc(N2CCN(c3ncnn4cc(-c5cnn(C)c5)cc34)CC2)nc1 [Compound 70] | 1.01 to 10 | – | < 50 |
| CC(C)(C)OC(=O)N1CC=C(c2cc3c(N4CCN(c5ncc([C@@](C)(O)c6ccc(F)cc6)cn5)CC4)ncnn3c2)CC1 [Compound 124] | 1.01 to 10 | – | < 50 |
| NC(=O)c1ccc(-c2cc3c(N4CCN(c5ncc(Cc6ccccc6)cn5)CC4)ncnn3c2)cc1 [Compound 33] | 1.01 to 10 | – | 100 to 1000 |
| Cc1ccc(-c2cc3c(N4CCN(c5ncc([C@](C)(O)c6ccc(F)cc6)cn5)CC4)ncnn3c2)s1 [Compound 81] | 10 to 100 | – | 1000 to 10000 |
| Cn1cc(-c2cc3c(N4CCN(c5ncc([C@@](C)(O)c6ccc(Cl)cc6)cn5)CC4)ncnn3c2)cn1 [Compound 83] | < 1 | – | < 50 |
| Cn1cc(-c2cc3c(N4CCN(c5ncc([C@@H](CO)c6ccc(F)cc6)cn5)CC4)ncnn3c2)cn1 [Compound 49] | < 1 | – | < 50 |
| Cn1cc(-c2cc3c(N4CCN(c5ncc([C@](C)(O)c6ccccc6)cn5)CC4)ncnn3c2)cn1 [Compound 24] | 1.01 to 10 | – | 100 to 1000 |
| C[C@@H]1CN(c2ncnn3cc(-c4cnn(C)c4)cc23)CCN1c1ncc(Sc2ccccc2F)cn1 [Compound 55] | 10 to 100 | – | 100 to 1000 |
| C[C@H](O)Cn1cc(-c2cc3c(N4CCN(c5ncc(Sc6ccccc6F)cn5)CC4)ncnn3c2)cn1 [Compound 105] | 1.01 to 10 | – | < 50 |
| CN(C)[C@@H](c1ccccc1)c1cnc(N2CCN(c3ncnn4cc(-c5cnn(C)c5)cc34)CC2)nc1 [Compound 36, (S)—N,N-dimethyl-1-(2-(4-(6-(1-methyl-1H-pyrazol-4-yl)pyrrolo[2,1-f][1,2,4]triazin-4-yl)piperazin-1-yl)pyrimidin-5-yl)-1-phenylmethanamine] | 1.01 to 10 | – | 100 to 1000 |
| COc1ccc(-c2cc3c(N4CCN(c5ccccc5)CC4)ncnn3c2)cc1OC [Compound 5] | 10 to 100 | – | 1000 to 10000 |
| Cn1cc(-c2cc3c(N4CCN(c5ncc([C@@](C)(O)c6c(F)cccc6F)cn5)CC4)ncnn3c2)cn1 [Compound 92] | 1.01 to 10 | – | < 50 |
| Cn1cc(-c2cc3c(N4CCN(c5ncc([C@](C)(O)c6ccc(F)cc6Cl)cn5)CC4)ncnn3c2)cn1 [Compound 109] | 10 to 100 | – | 100 to 1000 |
